According to ChEMBL document CHEMBL1201861, “Genomics of Drug Sensitity in Cancer screening data, Wellcome Trust Sanger Institute”:
pIC50: −log10 of the molar value.

What was measured:
Experiment in all cases: cells
Type in all cases: functional, cell-based, Homo sapiens
CAL-39 = test system: CAL-39;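 also: cell viability assay measuring growth inhibition of CAL-39 cells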
Description: SANGER: Inhibition of human CAL-39 cell growth in a cell viability assay.

NCI-H1563 = test system: NCI-H1563;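 also: growth inhibition of human NCI-H1563 cells, read out with a cell viability assay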
Description: SANGER: Inhibition of human NCI-H1563 cell growth in a cell viability assay.

D-336MG = test system: D-336MG
Description: SANGER: Inhibition of human D-336MG cell growth in a cell viability assay.

CP50-MEL-B = test system: CP50-MEL-B;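 also: growth inhibition of the human cell line, measured with a cell viability read-out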
Description: SANGER: Inhibition of human CP50-MEL-B cell growth in a cell viability assay.

HLE = test system: HLE;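 also: growth inhibition of human HLE cells, read out by a cell viability assay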
Description: SANGER: Inhibition of human HLE cell growth in a cell viability assay.

BFTC-909 = test system: BFTC-909
Description: SANGER: Inhibition of human BFTC-909 cell growth in a cell viability assay.

OVCAR-5 = test system: OVCAR-5;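 also: growth inhibition of human OVCAR-5 cells, read out with a cell viability assay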
Description: SANGER: Inhibition of human OVCAR-5 cell growth in a cell viability assay.

CWR22R = test system: CWR22R;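 also: growth inhibition of 22Rv1 cells, read out with a cell viability assay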
Description: SANGER: Inhibition of human 22RV1 cell growth in a cell viability assay.

SKG-IIIa = test system: SKG-IIIa;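 also: cell growth inhibition, read out with a cell viability assay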
Description: SANGER: Inhibition of human SKG-IIIa cell growth in a cell viability assay.

MKN-45 = test system: MKN-45;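 also: growth inhibition of human MKN-45 cells, measured with a cell viability assay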
Description: SANGER: Inhibition of human MKN45 cell growth in a cell viability assay.

GAMG = test system: GAMG;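 also: cell growth inhibition measured by a viability assay in the GAMG human cell line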
Description: SANGER: Inhibition of human GAMG cell growth in a cell viability assay.

SW1573 = test system: SW1573;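 also: growth inhibition of SW1573 cells, read out with a cell viability assay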
Description: SANGER: Inhibition of human SW1573 cell growth in a cell viability assay.

RCM-1 = test system: RCM-1;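 also: growth inhibition of the RCM-1 line, determined with a cell viability readout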
Description: SANGER: Inhibition of human RCM-1 cell growth in a cell viability assay.

ABC-1 = test system: ABC-1;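 also: growth inhibition of human ABC-1 cells, read out by a cell viability assay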
Description: SANGER: Inhibition of human ABC-1 cell growth in a cell viability assay.

SW 1116 = test system: SW 1116;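 also: growth inhibition of SW1116 cells, read out with a cell viability assay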
Description: SANGER: Inhibition of human SW1116 cell growth in a cell viability assay.

SNU-449 = test system: SNU-449
Description: SANGER: Inhibition of human SNU-449 cell growth in a cell viability assay.

MDA-MB-175-VII = test system: MDA-MB-175-VII
MC-IXC = test system: MC-IXC;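 also: growth inhibition of MC-IXC cells, read out with a cell viability assay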
Description: SANGER: Inhibition of human MC-IXC cell growth in a cell viability assay.

NCI-H2452 = test system: NCI-H2452;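 also: growth inhibition of NCI-H2452 cells, read out with a cell viability assay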
Description: SANGER: Inhibition of human NCI-H2452 cell growth in a cell viability assay.

HCT-116 = test system: HCT-116
Description: SANGER: Inhibition of human HCT-116 cell growth in a cell viability assay.

ESS-1 = test system: ESS-1;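 also: growth inhibition of human ESS-1 cells, read out by a cell viability assay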
Description: SANGER: Inhibition of human ESS-1 cell growth in a cell viability assay.

SK-LU-1 = test system: SK-LU-1;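 also: cell viability assay measuring growth inhibition of human SK-LU-1 cells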
Description: SANGER: Inhibition of human SK-LU-1 cell growth in a cell viability assay.

NCI-H1048 = test system: NCI-H1048;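 also: growth inhibition of human NCI-H1048 cells, read out with a cell viability assay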
Description: SANGER: Inhibition of human NCI-H1048 cell growth in a cell viability assay.

HPAF-II = test system: HPAF-II;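 also: growth inhibition of HPAF-II cells, read out with a cell viability assay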
Description: SANGER: Inhibition of human HPAF-II cell growth in a cell viability assay.

AN3-CA = test system: AN3-CA;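 also: growth inhibition of human AN3-CA cells measured by a cell viability assay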
Description: SANGER: Inhibition of human AN3-CA cell growth in a cell viability assay.

NY = test system: NY
Description: SANGER: Inhibition of human NY cell growth in a cell viability assay.

NCI-H630 = test system: NCI-H630;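 also: growth inhibition of NCI-H630 cells, read out with a cell viability assay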
Description: SANGER: Inhibition of human NCI-H630 cell growth in a cell viability assay.

M14 = test system: M14;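 also: growth inhibition of M14 cells, read out with a cell viability assay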
Description: SANGER: Inhibition of human M14 cell growth in a cell viability assay.

KOSC-2 = test system: KOSC-2;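 also: growth inhibition of KOSC-2 cells, read out by a cell viability assay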
Description: SANGER: Inhibition of human KOSC-2 cell growth in a cell viability assay.

Daoy = test system: Daoy;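 also: daoy cell growth inhibition, read out as cell viability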
Description: SANGER: Inhibition of human Daoy cell growth in a cell viability assay.

MFE-280 = test system: MFE-280;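 also: growth inhibition of MFE-280 cells, determined with a cell viability readout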
Description: SANGER: Inhibition of human MFE-280 cell growth in a cell viability assay.

CISPLATIN was tested. Which pIC50 (CAL-39; cal-39) did it give?
Its pIC50 is 3.54.

What about the pIC50 (NCI-H1563; nci-h1563) of the same molecule?
Its pIC50 is 3.84.

What about the pIC50 (D-336MG; d-336mg) of the same molecule?
Its pIC50 is 4.47.

And the pIC50 (CP50-MEL-B; cp50-mel-b)?
Its pIC50 is 3.66.

And the pIC50 (HLE; hle)?
The pIC50 was 5.22.

And the pIC50 (BFTC-909; bftc-909)?
Its pIC50 is 4.83.

And the pIC50 (OVCAR-5; ovcar-5)?
The pIC50 was 5.40.

What about the pIC50 (CWR22R; cwr22r) of the same molecule?
The pIC50 was 4.60.

And the pIC50 (SKG-IIIa; skg-iiia)?
The pIC50 was 5.15.

And the pIC50 (MKN-45; mkn-45)?
Its pIC50 is 4.54.

And the pIC50 (GAMG; gamg)?
The pIC50 was 3.54.

And the pIC50 (SW1573; sw1573)?
Its pIC50 is 4.36.

And the pIC50 (RCM-1; rcm-1)?
The pIC50 was 3.91.

What about the pIC50 (ABC-1; abc-1) of the same molecule?
The pIC50 was 5.44.

And the pIC50 (SW 1116; sw 1116)?
The pIC50 was 3.80.

What about the pIC50 (SNU-449; snu-449) of the same molecule?
Its pIC50 is 4.14.

And the pIC50 (MDA-MB-175-VII; mda-mb-175-vii)?
The pIC50 was 4.16.

And the pIC50 (MC-IXC; mc-ixc)?
Its pIC50 is 5.77.

What about the pIC50 (NCI-H2452; nci-h2452) of the same molecule?
Its pIC50 is 3.67.

And the pIC50 (HCT-116; hct-116)?
The pIC50 was 5.06.

And the pIC50 (ESS-1; ess-1)?
Its pIC50 is 5.59.

And the pIC50 (SK-LU-1; sk-lu-1)?
The pIC50 was 5.13.

And the pIC50 (NCI-H1048; nci-h1048)?
Its pIC50 is 5.01.

What about the pIC50 (HPAF-II; hpaf-ii) of the same molecule?
Its pIC50 is 3.94.

What about the pIC50 (AN3-CA; an3-ca) of the same molecule?
The pIC50 was 5.00.

And the pIC50 (NY; ny)?
The pIC50 was 4.55.

And the pIC50 (NCI-H630; nci-h630)?
The pIC50 was 3.29.

What about the pIC50 (M14; m14) of the same molecule?
The pIC50 was 5.55.

What about the pIC50 (KOSC-2; kosc-2) of the same molecule?
Its pIC50 is 5.54.

What about the pIC50 (Daoy; daoy) of the same molecule?
The pIC50 was 5.82.

What about the pIC50 (MFE-280; mfe-280) of the same molecule?
The pIC50 was 3.20.

`CC(C)c1ccccc1Cc1cc(C(=O)Nc2ccc(S(=O)(=O)c3ccccc3C(C)(C)C)cc2)c(O)c(O)c1O` was tested. Which pIC50 (CAL-39; Homo sapiens, CAL-39) did it give?
Its pIC50 is 6.47.

And the pIC50 (NCI-H1563; Homo sapiens, NCI-H1563)?
Its pIC50 is 6.91.

What about the pIC50 (D-336MG; Homo sapiens, D-336MG) of the same molecule?
The pIC50 was 6.02.

What about the pIC50 (CP50-MEL-B; Homo sapiens, CP50-MEL-B) of the same molecule?
The pIC50 was 7.16.

What about the pIC50 (HLE; Homo sapiens, HLE) of the same molecule?
Its pIC50 is 6.92.

And the pIC50 (BFTC-909; Homo sapiens, BFTC-909)?
The pIC50 was 6.59.

What about the pIC50 (OVCAR-5; Homo sapiens, OVCAR-5) of the same molecule?
The pIC50 was 6.24.

And the pIC50 (CWR22R; Homo sapiens, 22Rv1)?
The pIC50 was 5.99.

What about the pIC50 (SKG-IIIa; Homo sapiens, SKG-IIIa) of the same molecule?
The pIC50 was 6.24.

What about the pIC50 (MKN-45; Homo sapiens, MKN-45) of the same molecule?
Its pIC50 is 6.47.

And the pIC50 (GAMG; Homo sapiens, GAMG)?
The pIC50 was 6.67.

What about the pIC50 (SW1573; Homo sapiens, SW1573) of the same molecule?
The pIC50 was 6.62.

What about the pIC50 (RCM-1; Homo sapiens, RCM-1) of the same molecule?
The pIC50 was 5.47.

What about the pIC50 (ABC-1; Homo sapiens, ABC-1) of the same molecule?
Its pIC50 is 6.50.

And the pIC50 (SW 1116; Homo sapiens, SW 1116)?
Its pIC50 is 5.07.

What about the pIC50 (SNU-449; Homo sapiens, SNU-449) of the same molecule?
The pIC50 was 6.43.

And the pIC50 (MDA-MB-175-VII; Homo sapiens, MDA-MB-175-VII)?
The pIC50 was 6.35.

What about the pIC50 (MC-IXC; Homo sapiens, MC-IXC) of the same molecule?
The pIC50 was 7.12.

What about the pIC50 (NCI-H2452; Homo sapiens, NCI-H2452) of the same molecule?
Its pIC50 is 6.12.

And the pIC50 (HCT-116; Homo sapiens, HCT-116)?
The pIC50 was 7.28.

And the pIC50 (ESS-1; Homo sapiens, ESS-1)?
Its pIC50 is 6.85.

What about the pIC50 (SK-LU-1; Homo sapiens, SK-LU-1) of the same molecule?
Its pIC50 is 6.15.

And the pIC50 (NCI-H1048; Homo sapiens, NCI-H1048)?
Its pIC50 is 6.67.

And the pIC50 (HPAF-II; Homo sapiens, HPAF-II)?
The pIC50 was 6.64.

And the pIC50 (AN3-CA; Homo sapiens, AN3-CA)?
Its pIC50 is 6.05.

What about the pIC50 (NY; Homo sapiens, NY) of the same molecule?
The pIC50 was 6.75.

What about the pIC50 (NCI-H630; Homo sapiens, NCI-H630) of the same molecule?
Its pIC50 is 6.09.

What about the pIC50 (M14; Homo sapiens, M14) of the same molecule?
Its pIC50 is 5.55.

What about the pIC50 (KOSC-2; Homo sapiens, KOSC-2) of the same molecule?
The pIC50 was 6.30.

What about the pIC50 (Daoy; Homo sapiens, Daoy) of the same molecule?
Its pIC50 is 6.85.

What about the pIC50 (MFE-280; Homo sapiens, MFE-280) of the same molecule?
The pIC50 was 5.34.
